Source: patent US8952073B2, “Estrogenic compounds, process for their production and pharmaceutical uses thereof” (The University of Ottawa, priority 2008, dated 2015)
“And” between values parts separate entries of the source, which are not always exact repeats. Identical values can stand only once. Like-named read-outs stand apart in the source and are kept apart here. Blank lines part the entries; values can stand above or below the compound they belong to.

What was measured:
ERα [1] = molecular target: T1, ERα (Homo sapiens, UniProt P03372); assay: Relative binding affinity (RBA), radiolabel competition assay, estrogen alpha receptor; settings: for RBAα: estradiol=100; for RBA for ERα: relative to estradiol (set at 100%)
T1 sequence (P03372 1-595): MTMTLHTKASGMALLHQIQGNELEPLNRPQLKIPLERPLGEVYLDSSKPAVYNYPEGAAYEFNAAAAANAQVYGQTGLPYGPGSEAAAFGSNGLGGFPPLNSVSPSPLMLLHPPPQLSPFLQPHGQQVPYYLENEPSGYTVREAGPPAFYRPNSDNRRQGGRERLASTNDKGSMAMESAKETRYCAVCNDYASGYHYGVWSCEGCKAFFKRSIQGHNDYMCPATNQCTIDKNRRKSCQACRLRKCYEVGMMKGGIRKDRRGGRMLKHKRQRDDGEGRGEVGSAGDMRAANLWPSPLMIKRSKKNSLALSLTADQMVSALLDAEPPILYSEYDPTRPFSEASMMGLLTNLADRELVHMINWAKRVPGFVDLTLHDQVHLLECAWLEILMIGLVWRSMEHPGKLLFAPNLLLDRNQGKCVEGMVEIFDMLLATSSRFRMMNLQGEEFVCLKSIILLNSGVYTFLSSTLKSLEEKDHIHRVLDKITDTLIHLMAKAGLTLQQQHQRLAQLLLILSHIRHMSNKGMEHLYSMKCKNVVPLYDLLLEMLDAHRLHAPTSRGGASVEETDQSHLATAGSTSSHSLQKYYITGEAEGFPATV

ERβ [2] = molecular target: T2, ERβ (Homo sapiens, UniProt Q92731); assay: Relative binding affinity (RBA), radiolabel competition assay, estrogen beta receptor; settings: for RBAβ: estradiol=100; for RBA for ERβ: relative to estradiol (set at 100%)
T2 sequence (Q92731 whole entry): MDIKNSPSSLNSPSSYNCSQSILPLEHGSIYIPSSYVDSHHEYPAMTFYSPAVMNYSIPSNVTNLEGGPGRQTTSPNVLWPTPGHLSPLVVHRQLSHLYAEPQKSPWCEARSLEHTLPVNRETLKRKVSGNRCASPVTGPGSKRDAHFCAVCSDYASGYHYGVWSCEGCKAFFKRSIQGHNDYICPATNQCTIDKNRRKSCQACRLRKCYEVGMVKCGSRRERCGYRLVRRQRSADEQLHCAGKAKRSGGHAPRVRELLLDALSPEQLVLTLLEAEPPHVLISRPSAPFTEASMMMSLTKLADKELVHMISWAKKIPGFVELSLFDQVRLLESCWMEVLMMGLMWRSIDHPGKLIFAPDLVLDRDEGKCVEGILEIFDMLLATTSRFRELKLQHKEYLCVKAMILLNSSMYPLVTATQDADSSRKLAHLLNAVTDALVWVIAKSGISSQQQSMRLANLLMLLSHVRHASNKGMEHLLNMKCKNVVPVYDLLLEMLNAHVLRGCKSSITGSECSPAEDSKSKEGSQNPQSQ

ERβ [3] = molecular target: T2, ERβ; assay: Relative transcription assay (RTA), estrogen response element driven luciferase, estrogen beta receptor; format: cell-based; settings: for RTAβ: relative transcription activity, estradiol=100; for hormonal potency / transcriptional activation at ERβ, in words: result in words
ERα [4] = molecular target: T1, ERα; assay: Relative transcription assay (RTA), estrogen response element driven luciferase, estrogen alpha receptor; format: cell-based; settings: for RTAα: relative transcription activity, estradiol=100
ERβ vs. ERα = settings: literature values; cited from earlier work
intact hepatocytes = settings: read-out: LC50, 2 hour exposure
[5] = double bond in ring C (C9-C11 or C9-C8), tested as mixtures except entries 16, 17, 19, 20, 25, 26
[6] = double bond in ring C, mixtures except entries 16, 17, 19, 20, 25, 26
[7] = ring C saturated compounds, natural stereochemistry at C9
[8] = 9-hydroxy compounds, natural stereochemistry at C9

RBAα (ERα [1]; [5]): 0.44 | RBAβ/RBAα (ERβ [2]; [6]): 5.1 | RBAβ (ERβ [2]; [5]): 2.6
SMILES: C[C@]12CC=C(c3cc(F)c(O)cc3F)CC1CC[C@@H]2O (stereo partly drawn) [Entry 16]

RBAα (ERα [1]; [7]): 0.4 | RBAβ (ERβ [2]; [7]): 0.28 | RBAβ/RBAα (ERβ [2]; [7]): 7.0
SMILES: C[C@]12CC[C@H](c3cc(F)c(O)c(F)c3)CC1CC[C@@H]2O (stereo partly drawn) [Entry 4]

RTAβ (ERβ [3]): 100
SMILES: C[C@]12CC[C@@H]3c4ccc(O)cc4CC[C@H]3[C@@H]1CC[C@@H]2O [Estradiol, 17β-estradiol, reference compound]
CC50 at 2 h (in vitro): 400 to 450 µM

SMILES: C[C@]12CC[C@H](c3ccc(O)c(F)c3F)CC1CC[C@@H]2O (stereo partly drawn) [Entry 5]
RBAα (ERα [1]; [7]): 4.6 | RBAβ (ERβ [2]; [7]): 42.8 | RBAβ/RBAα (ERβ [2]; [7]): 9.3 | RTAα (ERα [4]): 18 | Ratio RTAβ/RTAα (ERβ [3]): 8.4 | RTAβ (ERβ [3]): 151 | CC50 at 2 h (in vitro; intact hepatocytes): 155 to 200 µM

SMILES: N#Cc1cc(-c2ccc(O)c(F)c2)cc2ccc(O)cc12 [WAY 202196]
binding affinity ERβ/ERα ratio (ERβ vs. ERα): 78

SMILES: C=Cc1cc(O)cc2nc(-c3ccc(O)c(F)c3)oc12 [ERB-041]
binding affinity ERβ/ERα ratio (ERβ vs. ERα): 226

RBAα (ERα [1]; [8]): 0.009 | RBAβ/RBAα (ERβ [2]; [8]): 13 | RBAβ (ERβ [2]; [8]): 0.12
SMILES: C[C@]12CC[C@](O)(c3ccc(O)c(F)c3)CC1CC[C@@H]2O (stereo partly drawn) [Entry 28]

SMILES: C[C@]12CC[C@H](c3cc(F)c(O)c(F)c3F)CC1CC[C@@H]2O (stereo partly drawn) [Entry 7]
RBAα (ERα [1]; [7]): 0.19 | RBAβ (ERβ [2]; [7]): 1.73 | further reduction in binding, factor (ERβ [2]; in comparison with entry 3): about 10 | RBAβ/RBAα (ERβ [2]; [7]): 9.1 | RTAα (ERα [4]): 11 | Ratio RTAβ/RTAα (ERβ [3]): 4.8 | RTAβ (ERβ [3]): 53 | CC50 (intact hepatocytes): > 600 µM | CC50 at 2 h (in vitro; intact hepatocytes): > 600 µM

SMILES: C[C@]12CC=C(c3ccc(O)cc3Cl)CC1CC[C@@H]2O (stereo partly drawn) [Entry 19]
RBAα (ERα [1]; [5]): 60 | RBAβ/RBAα (ERβ [2]; [6]): 2.0 | RBAβ (ERβ [2]; [5]): 118 | RTAα (ERα [4]): 120 | Ratio RTAβ/RTAα (ERβ [3]): 1.6 | RTAβ (ERβ [3]): 157

SMILES: Cc1cc(O)ccc1[C@H]1CC[C@@]2(C)C(CC[C@@H]2O)C1 (stereo partly drawn) [Entry 9]
RBAα (ERα [1]; [7]): 2.8 | RBAβ (ERβ [2]; [7]): 33.6 | RBAβ/RBAα (ERβ [2]; [7]): 11.9 | RTAα (ERα [4]): −9.7 | RTAβ (ERβ [3]): 149

RBAα (ERα [1]; [8]): 0.01 | RBAβ/RBAα (ERβ [2]; [8]): 10 | RBAβ (ERβ [2]; [8]): 0.1
SMILES: C[C@]12CC[C@](O)(c3ccc(O)cc3)CC1CC[C@@H]2O (stereo partly drawn) [Entry 27]

SMILES: C[C@]12CCC(c3ccc(O)cc3CCSCc3ccccc3)=CC1CC[C@@H]2O (stereo partly drawn) [Entry 26]
RBAα (ERα [1]; [5]): 0.31 | RBAβ/RBAα (ERβ [2]; [6]): 0.86 | RBAβ (ERβ [2]; [5]): 0.27 | RTAα (ERα [4]): 6.7 | Ratio RTAβ/RTAα (ERβ [3]): 2.2 | RTAβ (ERβ [3]): 15.6

RBAα (ERα [1]; [8]): 0.005 | RBAβ/RBAα (ERβ [2]; [8]): 4.6 | RBAβ (ERβ [2]; [8]): 0.023
SMILES: C[C@]12CC[C@](O)(c3cc(F)c(O)c(F)c3)CC1CC[C@@H]2O (stereo partly drawn) [Entry 30]

SMILES: C[C@]12CC[C@H](c3ccc(O)cc3Cl)CC1CC[C@@H]2O (stereo partly drawn) [Entry 8]
RBAα (ERα [1]; [7]): 55.3 | RTAα (ERα [4]): 88 | RTAβ (ERβ [3]): 188

RBAα (ERα [1]; [5]): 0.38 | RBAβ/RBAα (ERβ [2]; [6]): 6.8 | RBAβ (ERβ [2]; [5]): 3.3
SMILES: C[C@]12CCC(c3cc(F)c(O)cc3F)=CC1CC[C@@H]2O (stereo partly drawn) [Entry 17]

SMILES: C[C@]12CC[C@H](c3ccc(O)cc3F)CC1CC[C@@H]2O (stereo partly drawn) [Entry 3]
RBAα (ERα [1]; [7]): 27.3 | RBAβ (ERβ [2]; [7]): 135.5 | RBA for the ERβ receptor compared with estradiol, in words (ERβ [2]; result in words): exceeded that of estradiol itself | RBAβ/RBAα (ERβ [2]; [7]): 5.0 | RTAα (ERα [4]): 44 | transcriptional activation at ERα, in words (ERα [4]; result in words): both an ERα and an ERβ agonist | Ratio RTAβ/RTAα (ERβ [3]): 3.6 | RTAβ (ERβ [3]): 162 | hormonal potency / transcriptional activation at ERβ, in words (ERβ [3]): both an ERα and an ERβ agonist | CC50 at 2 h (in vitro; intact hepatocytes): 250 to 280 µM

SMILES: C[C@]12CC[C@H](c3ccc(O)cc3)CC1CC[C@@H]2O (stereo partly drawn) [Entry 1]
RBAα (ERα [1]; [7]): 1.5 | RBA for ERα (ERα [1]): 1.7% and 1.5% | selective binding, favouring ERβ by a factor (ERβ [2]; ERβ over ERα): 15 | RBAβ (ERβ [2]; [7]): 21.5 | RBA for ERβ (ERβ [2]): 21.5% | RBAβ/RBAα (ERβ [2]; [7]): 14.6 | RTAα (ERα [4]): 4.3 | RTAα (ERα [4]; listed as 1*): −8.9 | Ratio RTAβ/RTAα (ERβ [3]): 38 | RTAβ (ERβ [3]): 164 | RTAβ (ERβ [3]; listed as 1*): 7.7 | CC50 at 2 h (in vitro; intact hepatocytes): 320 to 400 µM

RBAα (ERα [1]; [5]): 0.32 | RBAβ/RBAα (ERβ [2]; [6]): 2.2 | RBAβ (ERβ [2]; [5]): 0.76
SMILES: C[C@]12CC=C(c3ccc(O)cc3CCSCc3ccccc3)CC1CC[C@@H]2O (stereo partly drawn) [Entry 25]

SMILES: C[C@]12CCC(c3ccc(O)cc3Cl)=CC1CC[C@@H]2O (stereo partly drawn) [Entry 20]
RBAα (ERα [1]; [5]): 195 | RBAβ/RBAα (ERβ [2]; [6]): 1.7 | RBAβ (ERβ [2]; [5]): 331 | RTAα (ERα [4]): 98 | Ratio RTAβ/RTAα (ERβ [3]): 2.1 | RTAβ (ERβ [3]): 188

RBAα (ERα [1]; [8]): 0.17 | decrease in binding affinity (ERβ [2]; 9-hydroxy compound compared to the saturated analog): 37 fold | RBAβ/RBAα (ERβ [2]; [8]): 21 | RBAβ (ERβ [2]; [8]): 3.6
SMILES: C[C@]12CC[C@](O)(c3ccc(O)cc3F)CC1CC[C@@H]2O (stereo partly drawn) [Entry 29]

SMILES: C[C@]12CC[C@H](c3ccc(O)c(F)c3)CC1CC[C@@H]2O (stereo partly drawn) [Entry 2]
RBAα (ERα [1]; [7]): 1.0 | RBA for ERα (ERα [1]): 1.0% | RBAβ (ERβ [2]; [7]): 8.7 | RBA for ERβ (ERβ [2]): 8% | RBAβ/RBAα (ERβ [2]; [7]): 8.7 | RTAα (ERα [4]): −8.3 | RTAβ (ERβ [3]): 14 | hormonal potency / transcriptional activation at ERβ, in words (ERβ [3]): weak agonist for ERβ | CC50 at 2 h (in vitro; intact hepatocytes): 400 to 450 µM
